Measured values published in US20110224197A1, “PYRIMIDINES AND PYRIDINES USEFUL AS INHIBITORS OF PROTEIN KINASES” (Vertex Pharmaceuticals Incorporated, priority 2008, published 2011).

Assays:
GSK-3α/β pTYR = assay: pTYR biomarker analysis in brain, Post Stroke Model II; type: in vivo, rat; details: all doses, termination of study
Method: (§1) To track the activity of Compound I-37 in the CNS of rats subjected to MCAO, brains were removed and protein lysate was obtained (as described herein) from both vehicle treated and compound treated animals at the termination of the study. Lysates were analyzed by Western blot and probed for GSK-3α/β pTYR levels.
(§2) Protein lysate is obtained from the brains of all vehicle and compound-treated animals and is processed for biomarker analysis of GSK3α/β pTYR and β-catenin by Western blot assay to ensure compound activity on the target.

β-catenin = β-catenin in brain, Post Stroke Model II; type: in vivo, rat; details: all doses
Method: as §1, §2

[1] = tested on: E16 rat hippocampal or cortical neurons; assay: Axonal Branching Assay; type: cell-based
Method: Compounds are tested for the ability to enhance axonal branching in E16 rat hippocampal or cortical neurons.
1 mg/ml stock of PDL is diluted into 100 μg/ml in DI water. The glass coverslips are coated for at least 1 hour at 37° C. prior to doing the dissection. PDL is aspirated and the plates are rinsed with PBS and air-dried in hood.
Cortical or hippocampal lobes are combined with 9 mL of Base media (Neurobasal+Pen/Strep) and put on ice. 1 mL of 10× trypsin solution is added and the mixture is swirled gently. The tissue is then digested via incubation in a 37° C. waterbath for 20 minutes. After 20 minutes, 10 μl/ml DNase (100 μL DNase) is added and the mixture is incubated for another 5 minutes.
The cells are spun at 1000 rpm for 1 minute. The enzyme solution is then removed without removing any of the brain fragments sitting on the bottom. […] The cells are counted in a hemacytometer and seeded at 5000-10000 cells/well in a 24 well plate with glass coverslip inserts coated with PDL. […]
Images are captured at 10× and 20× on an upright microscope and axonal branching is determined by quantification of area under threshold fluorescence of neurofilament Alexa 488 per cell. Dendritic branching is determined by quantification of area under threshold fluorescence of MAP2 Alexa 568 per cell. Alternatively, branching can be determined by manual counting of branch points per cell. […]

spinal cord injury model = assay: Spinal Cord Injury Model; details: in vivo
Method: Compound I-37 was tested in a spinal cord injury model similar to the one described in Dill, et al, (2008) “Inactivation of Glycogen Synthase Kinase 3 Promotes Axonal Growth and Recover in CNS” The Journal of Neuroscience, 28(36): 8914-8928.

`Cc1nc(-c2ccccc2Cl)nc(Nc2n[nH]c3ncc(F)cc23)c1C` [Compound I-37, N-(2-(2-chlorophenyl)-5,6-dimethylpyrhnidin-4-yl)-5-fluoro-1H-pyrazolo[3,4-b]pyridin-3-amine] was tested, and the “pTYR signal compared to vehicle treated rats” value (GSK-3α/β pTYR) was “significant reduction”, the “induction of β-catenin” value (β-catenin) was “no induction” and the “axonal and dendritic branching” value ([1]; 10 nM, 7 days) was “increased axonal and dentritic branching”. The axon growth ([1]; concentrations shown to induce β-catenin) was “axon growth was inhibited” and the functional recovery (spinal cord injury model) was “did not appear to improve functional recovery”.
